System: C. phytofermentans
Settings: basal medium; ethanol production from pretreated corn stover
Description: To examine the effect of individual nutrients (e.g., vitamins or amino acids) on the growth and/or ethanol production of C. phytofermentans, complex nutrients such as yeast extract were reduced to a minimal concentration that will permit sub-optimal growth. Each specific nutrient is added in a titration of increasing amount until a “saturation” of effect is observed.
Corn Stover, Mono and Dibasic Potassium Phosphate and Sodium Chloride were sterilized by autoclaving and the remaining components were added aseptically to each fermentation flask. DBY and CSP were separately prepared each as 100 g/L stocks and autoclaved.
All solutions and materials were degassed prior to use. Prior to inoculation, all flasks receive a sterile addition of commercial cellulases (from Novozymes) consisting of (per 100 mL medium): 0.25 mL Cat# NS50013 and 0.83 mL of diluted (1/10 in water) Cat# NS22002. […]
Following inoculation, flasks were placed in shaking fermenters at 35° C. with agitation at 175 rpm and sampled daily. […] Samples were analyzed for sugars (cellobiose, xylose, arabinose, and glucose) and fermentation products (formic, lactic, and acetic acids and ethanol) using HPLC.

O=C(O)c1cccnc1 [nicotinic acid, Nicotinic acid]
nicotinic acid supplementation above which a saturation effect is seen: > 10 mg/L

— patent publication US20120107888A1, “MODULATION OF FERMENTATION PRODUCTS THROUGH VITAMIN SUPPLEMENTATION” (Qteros, Inc., priority 2011, published 2012)
